≈ marks a conversion by molar mass, not a printed value.
Columns and labels:
[1] = solubility

| solubility in water | solubility ([1]; absolute ethanol, organic solvent or mixture) [µg/mL] | solubility ([1]; water) [µg/mL] | SMILES |
| --- | --- | --- | --- |
| 10^-5 M | – | – | CCOC(=O)c1c(I)cc(I)c(NC(=O)CCCCC(=O)Nc2c(I)cc(I)c(C(=O)OCC)c2I)c1I [IDE, iodipamide ethyl ester] |
| – | < 4 | 70 (≈ 257 µM) | O=C1NC(=O)[C@H]2[C@H]3C=C[C@@H]([C@@H]12)[C@@H]1[C@H]2C(=O)NC(=O)[C@H]2[C@H]31 [mitindomide] |

— patent US4997454A, “Method for making uniformly-sized particles from insoluble compounds” (The University of Rochester, priority 1989, dated 1991)
